Drawing on PubChem BioAssay (NCI), this text covers TGI for 21 compounds.

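How tested: cells in 96-well plates exposed to compound for 48 hours at five concentrations. Definition used: TGI = concentration required for complete inhibition of growth.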

Among the test systems are 786-0 renal; A549 NSCLC; CCRF-CEM leukemia; HOP-92 NSCLC; LOX IMVI melanoma; MALME-3M melanoma; MDA-MB-435; MOLT-4 leukemia; SK-MEL-2 melanoma; SW-620 colon; OVCAR-4 ovarian.
Test in all cases: NCI anticancer screen, dose series, 48 h

For the compound `CCOC(=O)c1c[nH]c(C(=O)OCC)c1-c1cccn1-c1ccccc1`, the TGI in the experiment on 786-0 renal was above 100 µM; in the experiment with A549 NSCLC, above 100 µM; in the experiment with CCRF-CEM leukemia it was 52.2 µM; with HOP-92 NSCLC it was above 100 µM; in the experiment on LOX IMVI melanoma, 32.4 µM; with MALME-3M melanoma, 56.4 µM. Besides, the TGI in the experiment with MDA-MB-435 was above 100 µM; with MOLT-4 leukemia, 53 µM; with SK-MEL-2 melanoma, 35.5 µM; in the experiment on SW-620 colon it was above 100 µM.

With `O=C1NC2NC3NC(=O)NC3NC2N1` (configuration not stated), the TGI in the experiment with 786-0 renal, in the experiment on A549 NSCLC, in the experiment on CCRF-CEM leukemia, in the experiment on HOP-92 NSCLC, in the experiment with LOX IMVI melanoma and in the experiment with MALME-3M melanoma was above 100 µM in each case. The TGI in the experiment on MDA-MB-435, in the experiment with MOLT-4 leukemia, in the experiment with SK-MEL-2 melanoma and with SW-620 colon was above 100 µM each time.

With `CC(C)[C@@H]1CC[C@@H](C)C[C@H]1OC(=O)c1c2n(c3ccccc13)C[C@H]1OC(C)(C)O[C@@H]21`, the TGI in the experiment with 786-0 renal, in the experiment on A549 NSCLC, with CCRF-CEM leukemia, in the experiment with LOX IMVI melanoma, in the experiment on MALME-3M melanoma and with MDA-MB-435 was above 100 µM each time. The TGI in the experiment on MOLT-4 leukemia, in the experiment with OVCAR-4 ovarian, with SK-MEL-2 melanoma and with SW-620 colon was above 100 µM in each case.

Take `O=C1N=C2SC=C(NC(=S)Nc3ccccc3)N2NC12c1ccccc1-c1ccccc12`: the TGI in the experiment with 786-0 renal, in the experiment with A549 NSCLC, with CCRF-CEM leukemia, in the experiment on HOP-92 NSCLC, with LOX IMVI melanoma and with MALME-3M melanoma was above 10 µM each time. Besides, the TGI in the experiment with MDA-MB-435, with MOLT-4 leukemia, with OVCAR-4 ovarian and with SW-620 colon was above 10 µM each time.

Take `CCC(NC(C)c1ccccc1)C(=O)c1ccc(OCc2ccccc2)c(OCc2ccccc2)c1` (configuration not stated): the TGI with 786-0 renal, in the experiment with A549 NSCLC, with HOP-92 NSCLC, in the experiment on LOX IMVI melanoma, with MALME-3M melanoma and in the experiment with MDA-MB-435 was above 100 µM each time. Further, the TGI with OVCAR-4 ovarian and with SW-620 colon was above 100 µM in each case.

`Nc1nc(NNc2cccc(F)c2)cc(=O)[nH]1`: the TGI with 786-0 renal is 37.5 µM; with A549 NSCLC it was above 100 µM; in the experiment on CCRF-CEM leukemia it was above 100 µM; with LOX IMVI melanoma, 43.2 µM; in the experiment on MALME-3M melanoma it was above 100 µM; in the experiment with MDA-MB-435, 64.9 µM. Besides, the TGI in the experiment with MOLT-4 leukemia, with OVCAR-4 ovarian and in the experiment with SW-620 colon was above 100 µM each time.

As to `O=c1[nH]nc(Cc2ccccc2)n1/N=C/c1cccs1`, the TGI in the experiment on 786-0 renal, in the experiment with A549 NSCLC, in the experiment on CCRF-CEM leukemia, in the experiment with LOX IMVI melanoma, with MALME-3M melanoma and with MDA-MB-435 was above 100 µM each time. Moreover, the TGI with MOLT-4 leukemia, in the experiment on OVCAR-4 ovarian, in the experiment with SK-MEL-2 melanoma and in the experiment with SW-620 colon was above 100 µM throughout.

On to `COc1ccc(C2=Nc3c(nc(OC)[nH]c3=O)NC(c3ccccc3)C2)cc1` (configuration not stated), for which the TGI in the experiment with 786-0 renal is 93.6 µM; in the experiment with A549 NSCLC it was above 100 µM; in the experiment with CCRF-CEM leukemia, above 100 µM; with HOP-92 NSCLC, above 100 µM; with LOX IMVI melanoma, 70.3 µM; in the experiment on MALME-3M melanoma, above 100 µM. The TGI was above 100 µM in the experiment with MDA-MB-435, above 100 µM with MOLT-4 leukemia, above 100 µM with SK-MEL-2 melanoma and 72.4 µM in the experiment on SW-620 colon.

With `CC(C)C1CNC(=O)C2(C=NC(C(C)C)CNC(=O)C3(C=N1)CCCO3)CCCO2` (configuration not stated), the TGI in the experiment on 786-0 renal, in the experiment on A549 NSCLC, in the experiment with CCRF-CEM leukemia, with HOP-92 NSCLC, in the experiment on MALME-3M melanoma and with MDA-MB-435 was above 10 µM in each case. Besides, the TGI with MOLT-4 leukemia, in the experiment on OVCAR-4 ovarian and with SW-620 colon was above 10 µM each time.

Take `C=CCCC1(O)C(O)C(CO)O[C@H](O[C@@]2(CO)OC(CO)C(O)C2O)C1O` (some centres not stated): the TGI in the experiment on 786-0 renal, in the experiment on A549 NSCLC, with CCRF-CEM leukemia, in the experiment with HOP-92 NSCLC, with LOX IMVI melanoma and with MALME-3M melanoma was above 100 µM throughout. Also, the TGI with MDA-MB-435, in the experiment with MOLT-4 leukemia, in the experiment on OVCAR-4 ovarian and in the experiment on SW-620 colon was above 100 µM each time.

In the case of `O[C@]12C=C(c3nccc4c3[nH]c3ccccc34)[C@@H]3CCN(CCCC/C=C\CC1)C[C@@]31CC3/C=C\CCCCN3[C@H]12` (some centres not stated), the TGI is 0.615 µM in the experiment with 786-0 renal; 11.2 µM in the experiment on A549 NSCLC; above 29.6 µM in the experiment on CCRF-CEM leukemia; 0.741 µM in the experiment on HOP-92 NSCLC; 0.84 µM in the experiment on LOX IMVI melanoma; 1.71 µM in the experiment with MALME-3M melanoma. Moreover, the TGI in the experiment with MDA-MB-435 is 1.53 µM; in the experiment with OVCAR-4 ovarian, above 25.1 µM; in the experiment with SK-MEL-2 melanoma, 0.534 µM; in the experiment with SW-620 colon, 4.65 µM.

On to `Cc1c(C)c2c(c(N)c1C#N)C(=O)N(O)C2=O`, for which the TGI with 786-0 renal, with A549 NSCLC, in the experiment with CCRF-CEM leukemia, in the experiment on HOP-92 NSCLC, in the experiment with MALME-3M melanoma and in the experiment on MDA-MB-435 was above 100 µM in each case. Besides, the TGI in the experiment with MOLT-4 leukemia, in the experiment on OVCAR-4 ovarian, in the experiment on SK-MEL-2 melanoma and with SW-620 colon was above 100 µM in each case.

For `CC(CSC(=N)N)C(N)=O` (configuration not stated), the TGI in the experiment on 786-0 renal, with A549 NSCLC, in the experiment on CCRF-CEM leukemia, in the experiment on HOP-92 NSCLC, in the experiment on LOX IMVI melanoma and in the experiment on MALME-3M melanoma was above 100 µM in each case. The TGI with MDA-MB-435, in the experiment with OVCAR-4 ovarian, in the experiment with SK-MEL-2 melanoma and in the experiment with SW-620 colon was above 100 µM in each case.

Consider `Cn1c(=O)c2[nH]c(N=O)nc2n(C)c1=O`, for which the TGI with 786-0 renal, in the experiment with A549 NSCLC, in the experiment on LOX IMVI melanoma, in the experiment with MALME-3M melanoma, in the experiment with MDA-MB-435 and in the experiment on MOLT-4 leukemia was above 100 µM throughout. Moreover, the TGI in the experiment with OVCAR-4 ovarian, in the experiment with SK-MEL-2 melanoma and with SW-620 colon was above 100 µM each time.

Take `CN(C)CCN(C)P12(Oc3ccccc3O1)Oc1c(Cl)c(Cl)c(Cl)c(Cl)c1O2`: the TGI was above 100 µM in the experiment with 786-0 renal; above 100 µM with A549 NSCLC; 92.2 µM with CCRF-CEM leukemia; 92.7 µM in the experiment on HOP-92 NSCLC; above 100 µM in the experiment on LOX IMVI melanoma; above 100 µM in the experiment with MALME-3M melanoma. Also, the TGI with MDA-MB-435, in the experiment on MOLT-4 leukemia, in the experiment on OVCAR-4 ovarian and in the experiment with SW-620 colon was above 100 µM throughout.

On to `O=C(O)c1nc2ccccc2nc1Nc1ccc(Cl)c(Cl)c1`, for which the TGI with 786-0 renal was 63.9 µM; in the experiment with A549 NSCLC, above 100 µM; with CCRF-CEM leukemia it was above 100 µM; with HOP-92 NSCLC, 59 µM; in the experiment on LOX IMVI melanoma, above 100 µM; with MALME-3M melanoma, above 100 µM. For the same compound, the TGI in the experiment with MDA-MB-435, in the experiment with MOLT-4 leukemia and in the experiment with SW-620 colon was above 100 µM in each case.

As to `Cc1ccc(S(=O)c2cccs2)cc1` (configuration not stated), the TGI in the experiment on 786-0 renal, with A549 NSCLC, in the experiment on CCRF-CEM leukemia, in the experiment with HOP-92 NSCLC, in the experiment on MALME-3M melanoma and in the experiment on MDA-MB-435 was above 100 µM each time. For the same compound, the TGI in the experiment with MOLT-4 leukemia and in the experiment on SW-620 colon was above 100 µM throughout.

Consider `CSc1ncnc2c1cnn2Cc1cn(COCCO)nn1`, for which the TGI in the experiment on 786-0 renal, in the experiment on A549 NSCLC, in the experiment with CCRF-CEM leukemia, in the experiment with HOP-92 NSCLC, with LOX IMVI melanoma and in the experiment on MALME-3M melanoma was above 100 µM in each case. Moreover, the TGI is 42.3 µM in the experiment on MDA-MB-435, above 100 µM with OVCAR-4 ovarian, above 100 µM in the experiment with SK-MEL-2 melanoma and above 100 µM with SW-620 colon.

As to `COc1ccc(C2c3cc4c(cc3OC(NNc3ccccc3)C2C)OCO4)cc1` (configuration not stated), the TGI in the experiment on 786-0 renal was 51.8 µM; in the experiment on A549 NSCLC, above 100 µM; with CCRF-CEM leukemia, 40.5 µM; with HOP-92 NSCLC, 67.9 µM; in the experiment on LOX IMVI melanoma, above 100 µM; in the experiment with MALME-3M melanoma, 52.9 µM. Moreover, the TGI was above 100 µM in the experiment with MDA-MB-435, above 100 µM in the experiment on MOLT-4 leukemia, 98.1 µM in the experiment on SK-MEL-2 melanoma and above 100 µM in the experiment on SW-620 colon.

For the compound `CO/C(N)=C(\C#N)N=Cc1ccc2ccccc2c1`, the TGI in the experiment on 786-0 renal, in the experiment with A549 NSCLC, in the experiment with CCRF-CEM leukemia, in the experiment on HOP-92 NSCLC, with LOX IMVI melanoma and in the experiment with MALME-3M melanoma was above 100 µM in each case. Further, the TGI in the experiment with MDA-MB-435, in the experiment with MOLT-4 leukemia, with SK-MEL-2 melanoma and in the experiment on SW-620 colon was above 100 µM throughout.

As to `COc1ccc(Nc2nc3ccccc3n3cccc23)cc1OC`, the TGI in the experiment on 786-0 renal was 35 µM; in the experiment with A549 NSCLC, 43.6 µM; in the experiment on CCRF-CEM leukemia, 15.2 µM; with HOP-92 NSCLC, above 100 µM; with LOX IMVI melanoma, 27.4 µM; with MALME-3M melanoma, 32.9 µM. Further, the TGI in the experiment with MDA-MB-435 was determined as 26.7 µM; with MOLT-4 leukemia, 43.3 µM; in the experiment with SK-MEL-2 melanoma it was 33.3 µM; in the experiment with SW-620 colon, 36.6 µM.
